In patent EP1100483B1, “GLUCOCORTICOID-SELECTIVE ANTI-INFLAMMATORY AGENTS” (Abbott Laboratories, priority 1998, dated 2000):

These compounds were tested against T1, minerocorticoid receptor (MR) (Homo sapiens, UniProt P08235) (assay: soluble minerocorticoid receptor (MR) binding assay, [3H]-aldosterone competition). Settings: 3-4 nM [3H]-aldosterone, 4 °C for 18 hours; Cheng-Prusoff.
T1 construct: made in house; host or cells: SF21 insect cells (baculovirus)
T1 sequence (P08235 1-984): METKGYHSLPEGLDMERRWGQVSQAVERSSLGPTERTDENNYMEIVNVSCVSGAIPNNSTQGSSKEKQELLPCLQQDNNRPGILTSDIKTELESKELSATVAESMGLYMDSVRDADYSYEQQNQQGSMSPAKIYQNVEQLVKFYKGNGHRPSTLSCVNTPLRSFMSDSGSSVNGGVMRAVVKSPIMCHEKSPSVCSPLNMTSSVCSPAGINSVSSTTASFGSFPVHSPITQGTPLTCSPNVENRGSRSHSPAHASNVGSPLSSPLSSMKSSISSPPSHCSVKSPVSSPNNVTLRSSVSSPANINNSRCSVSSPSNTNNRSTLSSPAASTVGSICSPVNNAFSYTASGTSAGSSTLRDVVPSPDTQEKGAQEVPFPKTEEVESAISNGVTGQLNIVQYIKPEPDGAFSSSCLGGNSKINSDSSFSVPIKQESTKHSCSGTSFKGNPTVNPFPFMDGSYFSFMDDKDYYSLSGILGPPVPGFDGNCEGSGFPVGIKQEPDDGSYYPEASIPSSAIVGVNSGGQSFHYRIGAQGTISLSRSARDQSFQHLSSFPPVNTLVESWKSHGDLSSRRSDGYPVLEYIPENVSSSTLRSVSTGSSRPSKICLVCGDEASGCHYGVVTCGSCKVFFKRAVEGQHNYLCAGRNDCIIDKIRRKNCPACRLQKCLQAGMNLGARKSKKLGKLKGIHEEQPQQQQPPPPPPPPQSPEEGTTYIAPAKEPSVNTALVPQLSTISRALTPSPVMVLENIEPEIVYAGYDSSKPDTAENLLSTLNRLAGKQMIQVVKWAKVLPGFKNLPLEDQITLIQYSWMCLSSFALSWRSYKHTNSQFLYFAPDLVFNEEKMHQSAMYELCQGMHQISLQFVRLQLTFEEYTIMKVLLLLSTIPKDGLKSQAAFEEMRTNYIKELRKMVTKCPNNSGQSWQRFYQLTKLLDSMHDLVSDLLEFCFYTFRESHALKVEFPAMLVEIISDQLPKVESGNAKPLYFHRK
From the text: For soluble minerocorticoid receptor (MR) binding assays, [^3H]-aldosterone (75-85 Ci/mmol) was purchased from New England Nuclear (Boston, MA), aldosterone was purchased from Sigma Chemical Co. (St. Louis, MO), CHAPS and DTT were purchased from Boehringer Mannheim GmbH (W. Germany) and all other reagents were purchased from Sigma.
The methods concerning growth, purification, and assays of recombinant viruses followed the protocol outlined by Summers, M.D., Smith, G.E., A Manual of Methods for Baculovirus Vectors and Insect Cell Culture Procedures, Tex. Agric. Exp. Stn. [Bull], 1987, No. 155, hereby incorporated by reference. The recombinant plasmids were cotransfected into SF21 cells with wild type AcNPV DNA, and the recombinant viruses were plaque purified.
A receptor extract was prepared from the baculovirus system, and aliquots were stored at -80 °C until used. Typical protein concentrations for these extracts were between 10 and 20 mg/ml. Stock solutions of aldosterone or other competing compounds were prepared as either 5 mM ethanol or DMSO stock solutions and serial dilutions were carried out in 1:1 DMSO-ethanol. The assay buffer consisted of the following: 25 mM sodium phosphate, 10 mM potassium fluoride, 20 mM sodium molybdate, 10% glycerol, 2 mM DTT and 0.25 mM CHAPS, pH=7.3 at room temperature.
Receptor assays were performed with a final volume of 250 µL containing from 50-75 µg of extract protein, plus 3-4 nM [^3H]-aldosterone and varying concentrations of competing ligand (0 to 10,000 nM). Assays were set up using a 96-well minitube system and incubations were carried out at 4 °C for 18 hours. Equilibrium under these conditions of buffer and temperature was achieved by 6-8 hours. Nonspecific binding was defined as that binding remaining in the presence of 1000 nM unlabeled aldosterone. At the end of the incubation period, 200 µL of 6.25% hydroxyapatite was added in wash buffer (binding buffer in the absence of DTT and CHAPS). Specific ligand binding to receptor was determined by a hydroxyapatite-binding assay according to the protocol outlined by Wecksler, W.R., Norman, A.W., An Hydroxylapatite Batch Assay for the Quantitation of 1α, 25-Dihydroxyvitamin D3-Receptor Complexes, Anal. Biochem. 1979, 92, 314-323, hereby incorporated by reference. Hydroxyapatite absorbs the receptor-ligand complex, allowing for the separation of bound from free radiolabeled ligand. The mixture was vortexed, incubated for 10 minutes at 4 °C, centrifuged, and the supernatant was removed. The hydroxyapatite pellet was washed twice more with the wash buffer. The amount of receptor-ligand complex was determined by liquid scintillation counting of the hydroxyapatite pellet after the addition of […] EcoScint A scintillation cocktail from National Diagnostics (Atlanta, GA.).
After correcting for nonspecific binding, IC50 values were determined. […] The IC50 values were determined graphically from a log-logit plot of the data. […] Standards are included in each assay and resulting Ki values are determined by use of a modified Cheng-Prusoff equation and used to calculate Ki values for "unknown analogs" as outlined by DeBlasi, A., O'Reilly, K., Motulsky, H.J., Calculating Receptor Number from Binding Experiments Using Same Compound As Radioligand and Competitor, TIPS 1989, 10.227-229, hereby incorporated by reference.

| Structure (SMILES) | Ki |
| --- | --- |
| CN(C)c1ccc(C(c2ccc(N(C)C)cc2)c2cc([N+](=O)[O-])ccc2Cl)cc1 [Example 1, 4',4" bis(dimethylamino)-2-chloro-5-nitrotriphenylmethane] | 2900 nM |
| CNc1ccc(C(c2ccc(NC)cc2)c2cc([N+](=O)[O-])ccc2Cl)cc1 [Example 23, 4',4" bis(methylamino)-2-chloro-5-nitrotriphenylmethane] | > 10000 nM |
| CN(C)c1ccc(C(c2ccc(N(C)C)cc2)c2cc(Cl)ccc2Cl)cc1 [Example 24, 4',4" bis(dimethylamino)-2,5-dichlorotriphenylmethane] | 2900 nM |
| CNc1ccc(C(c2ccc(NC)cc2)c2cc(Cl)ccc2Cl)cc1 [Example 27, 4',4" bis(methylamino)-2,5-dichlorotriphenylmethane] | > 10000 nM |
| CC(=O)OCCN(C)c1ccc(C(c2ccc(N(C)CCOC(C)=O)cc2)c2cc([N+](=O)[O-])ccc2Cl)cc1 [Example 31, 4',4" bis(N-(2-acetoxyethyl) N-methylamino)-2-chloro-5-nitrotriphenylmethane] | 3910 nM |
| CN(CCO)c1ccc(C(c2ccc(N(C)CCO)cc2)c2cc([N+](=O)[O-])ccc2Cl)cc1 [Example 32, 4',4" bis(N-(2-hydroxyethyl) N-methylamino)-2-chloro-5-nitrotriphenylmethane] | 3910 nM |
| O=[N+]([O-])c1ccc(Cl)c(C(c2ccc(NCc3ccccc3)cc2)c2ccc(NCc3ccccc3)cc2)c1 [Example 36, 4',4" bis(N-benzylamino)-2-chloro-5-nitrotriphenylmethane] | 2900 nM |
| CNc1ccc(C(c2ccc(N(C)C)cc2)c2cc([N+](=O)[O-])ccc2Cl)cc1 (stereo not shown) [Example 39, 4'-dimethylamino-4"-methylamino-2-chloro-5-nitrotriphenylmethane] | 2900 nM |
| CN(C)c1ccc(C(c2ccc(N(C)CCO)cc2)c2cc([N+](=O)[O-])ccc2Cl)cc1 (stereo not shown) [Example 42, 4'-dimethylamino-4"-(N-methyl-N-(2-hydroxyethyl)amino)-2-chloro-5-nitrotriphenylmethane] | 2900 nM |
| CNc1ccc(C(c2ccc(N(C)CCOC(C)=O)cc2)c2cc([N+](=O)[O-])ccc2Cl)cc1 (stereo not shown) [Example 49, 4'-methylamino-4"-(N-(2-acetoxyethyl)-N-methylamino)-2-chloro-5-nitrotriphenylmethane] | 3910 nM |
| CC(=O)OCCN(C)c1ccc(C(c2ccc(N(C)C)cc2)c2cc([N+](=O)[O-])ccc2Cl)cc1 (stereo not shown) [Example 51, 4'-dimethylamino-4"-(N-methyl-N-(2-acetoxyethyl)amino)-2-chloro-5-nitrotriphenylmethane] | > 10000 nM |
| CN(C)c1ccc(C(Oc2ccccc2)c2cc([N+](=O)[O-])ccc2Cl)cc1 (stereo not shown) [Example 52, phenyl-[(4'-dimethylaminophenyl)-(2-chloro-5-nitrophenyl)methyl] ether] | 3110 nM |
| CN(C)c1ccc(C(Sc2ccccc2)c2cc([N+](=O)[O-])ccc2Cl)cc1 (stereo not shown) [Example 54, phenyl-[(4'-dimethylaminophenyl)-(2-chloro-5-nitrophenyl)methyl]thioether] | 2900 nM |
